Source: patent publication US8389539B2, “Azacyclic derivatives” (Hoffman-La Roche Inc., priority 2009, dated 2013)
pIC50: −log10 of the molar value.

Target: T1, human HSL (Homo sapiens, UniProt Q05469)
T1 construct: overlapping PCR to generate a full length human HSL ORF with a 3′-His6 tag; His6 (C); made in house; host or cells: High 5 insect cells (baculovirus, pFast-BAC)
T1 sequence (Q05469 1-1076): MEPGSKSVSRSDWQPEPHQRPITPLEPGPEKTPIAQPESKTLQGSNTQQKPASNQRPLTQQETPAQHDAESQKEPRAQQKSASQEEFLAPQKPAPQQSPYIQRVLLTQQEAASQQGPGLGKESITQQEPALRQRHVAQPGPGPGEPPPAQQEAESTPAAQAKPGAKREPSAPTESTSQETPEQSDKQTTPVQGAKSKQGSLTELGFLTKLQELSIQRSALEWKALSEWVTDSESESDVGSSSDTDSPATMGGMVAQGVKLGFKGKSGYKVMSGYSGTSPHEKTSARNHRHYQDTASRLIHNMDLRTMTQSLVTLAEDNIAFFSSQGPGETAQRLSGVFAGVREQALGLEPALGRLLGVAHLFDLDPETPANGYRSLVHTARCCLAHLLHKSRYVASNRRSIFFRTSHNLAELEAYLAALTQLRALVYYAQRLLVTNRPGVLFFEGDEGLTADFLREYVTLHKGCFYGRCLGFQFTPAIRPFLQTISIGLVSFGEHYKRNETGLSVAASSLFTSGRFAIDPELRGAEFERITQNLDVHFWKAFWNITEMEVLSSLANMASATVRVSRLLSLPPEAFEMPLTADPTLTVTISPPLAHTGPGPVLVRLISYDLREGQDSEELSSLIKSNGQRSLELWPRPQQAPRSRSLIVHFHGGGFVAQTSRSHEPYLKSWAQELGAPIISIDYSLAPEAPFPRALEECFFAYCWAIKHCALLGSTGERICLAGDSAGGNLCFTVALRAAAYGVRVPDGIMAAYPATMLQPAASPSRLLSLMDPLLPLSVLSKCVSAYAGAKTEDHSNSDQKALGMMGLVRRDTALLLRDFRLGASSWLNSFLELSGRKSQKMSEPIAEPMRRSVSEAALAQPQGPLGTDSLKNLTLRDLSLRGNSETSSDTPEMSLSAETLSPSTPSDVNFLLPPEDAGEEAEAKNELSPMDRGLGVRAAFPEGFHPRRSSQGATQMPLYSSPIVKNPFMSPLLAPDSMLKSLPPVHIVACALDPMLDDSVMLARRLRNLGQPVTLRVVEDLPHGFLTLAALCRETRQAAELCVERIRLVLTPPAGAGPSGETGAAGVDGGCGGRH
Test: Human Hormone-Sensitive Lipase (HSL) enzyme inhibition assay (colorimetric, DMPT substrate)
Assay type: biochemical
Conditions: human full length HSL-His6, 2,3-dimercapto-1-propanol tributyrate substrate, 37° C. 20 minutes, absorbance at 405 nm; read-out: HSL hum IC50
Method: 1) Cloning: cDNA was prepared from commercial human brain polyA+ RNA and used as a template in overlapping PCR to generate a full length human HSL ORF with a 3′-His6 tag. This full length insert was cloned into the pFast-BAC vector and the DNA-sequence of several single clones was verified. DNA from a correct full length clone with the 3′His6 tag was used to transform the E. coli strain DH10BAC. Resulting bacmid DNA was used to generate a titered baculovirus stock for protein generation.
Cells were thawed. […] was done at 3×30 sec., Lubrol PX was added to 0.2% final concentration followed by stirring for 15 min. at 4° C. and centrifugation at 25 k×g, 60 min., 4° C. […] Supernatant was removed, the resin washed in the centrifuge vessel using 5 volumes of Base Buffer containing 0.2% Lubrol PX. Centrifugation was done again, then the supernatant discarded. The resin was poured onto a 0.8 μm membrane in a disposable filter unit (Nalge 450-0080), and washed with 5 volumes of Base Buffer containing 0.2% Lubrol PX. It was then washed with 30 volumes of Base Buffer containing 60 mM imidazole pH 7.5 at 4° C. The protein was eluated with 5 volumes of 25 mM Tris-Cl, 300 mM NaCl, 200 mM imidazole, 10 mM 2-mercaptoethanol, pH 7.5 at 4° C. by tumbling resin with buffer end-over-end, 30 min., 4° C. The resin was captured on a 0.2 μm membrane disposable filter unit (Millipore SCGP U02 RE) and the eluate collected in the reservoir. The eluate was concentrated using a 30 k MWCO centrifugal filter device (Sartorius Vivascience Vivacell 100, VC1022), to 20 ml. It was then dialyzed overnight at 4° C., two times against 2 L of 10% glycerol, 25 mM Tris-Cl, 300 mM NaCl, 0.2 mM EDTA, 0.2 mM DTT, pH 7.5 at 4° C. The protein was filtered using a 0.22 μm disposable filter unit (Millipore SCGP00525). The protein concentration was calculated from absorbance at 280 nm, using 280=0.67 cm-1 mg-1. […] The protein was stored at −80° C.
Human Hormone-Sensitive Lipase (HSL) Enzyme Inhibition Assay:
HSL enzyme activity was measured by a colorimetric assay using 2,3-dimercapto-1-propanol tributyrate (Aldrich, St. Louis, Mo.) as a substrate. Typically, 1.5 mM 2,3-dimercapto-1-propanol tributyrate (DMPT) in 100 mM MOPS, pH 7.2, 0.2 mg/ml fatty acid-free BSA was prepared by sonication at 4° C. to homogenous suspension. Test compounds (2 mM stock in DMSO) were diluted 3 fold in series in DMSO. Compound solutions were diluted 24 fold in 1.5 mM DMPT containing solution and 18 ul per well was added to 384-well microplates (Corning Costar). Twelve microliters per well of human HSL (15 ug/ml) was added and the reaction mixture was incubated at 37° C. for 20 minutes. Six microliters of 12 mM dithio-bis-(2-nitrobenzoic acid) (DTNB) in DMSO plus 1.2% SDS and 0.6% Triton X-100 were added and the mixture was incubated at room temperature for 15 minutes. Product production was monitored by reading absorbance at 405 nm on an Envision Reader (PerkinElmer Life and Analytical Sciences, Shelton, Conn.).

pIC50 | Compound
6.62 | O=C1N(c2ccc(C3CC3)cc2)CCC12CCN(CCCc1ccccc1)CC2 [Example 1, 2-(4-Cyclopropyl-phenyl)-8-(3-phenyl-propyl)-2,8-diaza-spiro[4.5]decan-1-one]
7.05 | CCCCNC(=O)CN1CCC2(CC1)CCN(c1ccc(C3CC3)cc1)C2=O [Example 11, N-Butyl-2-[2-(4-cyclopropyl-phenyl)-1-oxo-2,8-diaza-spiro[4.5]dec-8-yl]-acetamide]
7.22 | O=C(CCN1CCC2(CC1)CCN(c1ccc(C3CC3)cc1)C2=O)Nc1ccc(F)cc1 [Example 20, 3-[2-(4-Cyclopropyl-phenyl)-1-oxo-2,8-diaza-spiro[4.5]dec-8-yl]-N-(4-fluoro-phenyl)-propionamide]
6.21 | CCNC(=O)CN1CCC2(CC1)CCN(c1ccc(C3CC3)cc1)C2=O [Example 9, 2-[2-(4-Cyclopropyl-phenyl)-1-oxo-2,8-diaza-spiro[4.5]dec-8-yl]-N-ethyl-acetamide]
7.52 | O=C1N(c2ccc(C3CC3)cc2)CCC12CCN(C[C@H](O)c1cccc(Cl)c1)CC2 [Example 36, 8-[(R)-2-(3-Chloro-phenyl)-2-hydroxy-ethyl]-2-(4-cyclopropyl-phenyl)-2,8-diaza-spiro[4.5]decan-1-one]
7.40 | CCCCNC(=O)C(c1ccccc1)N1CCC2(CCN(c3ccc(C4CC4)cc3)C2=O)CC1 (centres unmarked) [Example 29, N-Butyl-2-[2-(4-cyclopropyl-phenyl)-1-oxo-2,8-diaza-spiro[4.5]dec-8-yl]-2-phenyl-acetamide]
7.15 | O=C1N(c2ccc(C3CC3)cc2)CCC12CCN(CC(O)c1ccccc1)CC2 (centres unmarked) [Example 23, 2-(4-Cyclopropyl-phenyl)-8-(2-hydroxy-2-phenyl-ethyl)-2,8-diaza-spiro[4.5]decan-1-one]
6.15 | COCCCNC(=O)CN1CCC2(CC1)CCN(c1ccc(C3CC3)cc1)C2=O [Example 17, 2-[2-(4-Cyclopropyl-phenyl)-1-oxo-2,8-diaza-spiro[4.5]dec-8-yl]-N-(3-methoxy-propyl)-acetamide]
7.00 | CC(O)(CN1CCC2(CC1)CCN(c1ccc(C3CC3)cc1)C2=O)c1ccccc1 (centres unmarked) [Example 34, 2-(4-Cyclopropyl-phenyl)-8-(2-hydroxy-2-phenyl-propyl)-2,8-diaza-spiro[4.5]decan-1-one]
7.10 | CN(Cc1ccccc1)C(=O)CN1CCC2(CC1)CCN(c1ccc(C3CC3)cc1)C2=O [Example 15, N-Benzyl-2-[2-(4-cyclopropyl-phenyl)-1-oxo-2,8-diaza-spiro[4.5]dec-8-yl]-N-methyl-acetamide]
7.10 | O=C1N(c2ccc(C3CC3)cc2)CCC12CCN(CC(O)c1ccc(Cl)cc1)CC2 (centres unmarked) [Example 24, 8-[2-(4-Chloro-phenyl)-2-hydroxy-ethyl]-2-(4-cyclopropyl-phenyl)-2,8-diaza-spiro[4.5]decan-1-one]
6.66 | O=C(CN1CCC2(CC1)CCN(c1ccc(C3CC3)cc1)C2=O)N1CCCC1 [Example 14, 2-(4-Cyclopropyl-phenyl)-8-(2-oxo-2-pyrrolidin-1-yl-ethyl)-2,8-diaza-spiro[4.5]decan-1-one]
7.52 | CCCCNC(=O)C(CC)N1CCC2(CCN(c3ccc(C4CC4)cc3)C2=O)CC1 (centres unmarked) [Example 28, N-Butyl-2-[2-(4-cyclopropyl-phenyl)-1-oxo-2,8-diaza-spiro[4.5]dec-8-yl]-butyramide]
7.05 | O=C1N(c2ccc(C3CC3)cc2)CCC12CCN(C[C@@H](O)c1ccccc1)CC2 [Example 32, 2-(4-Cyclopropyl-phenyl)-8-((S)-2-hydroxy-2-phenyl-ethyl)-2,8-diaza-spiro[4.5]decan-1-one]
7.52 | CC(c1ccccc1)N1CCC2(CCN(c3ccc(C4CC4)cc3)C2=O)CC1 (centres unmarked) [Example 4, 2-(4-Cyclopropyl-phenyl)-8-(1-phenyl-ethyl)-2,8-diaza-spiro[4.5]decan-1-one]
7.40 | O=C1N(c2ccc(C3CC3)cc2)CCC12CCN(C[C@H](O)c1ccccc1)CC2 [Example 33, 2-(4-Cyclopropyl-phenyl)-8-((R)-2-hydroxy-2-phenyl-ethyl)-2,8-diaza-spiro[4.5]decan-1-one]
7.70 | CCCCNC(=O)C(C(C)C)N1CCC2(CCN(c3ccc(C4CC4)cc3)C2=O)CC1 (centres unmarked) [Example 31, N-Butyl-2-[2-(4-cyclopropyl-phenyl)-1-oxo-2,8-diaza-spiro[4.5]dec-8-yl]-3-methyl-butyramide]
6.78 | COc1ccc(C(C(O)C(N)=O)N2CCC3(CCN(c4ccc(C5CC5)cc4)C3=O)CC2)cc1 (centres unmarked) [Example 40, 3-[2-(4-Cyclopropyl-phenyl)-1-oxo-2,8-diaza-spiro[4.5]dec-8-yl]-2-hydroxy-3-(4-methoxy-phenyl)-propionamide]
6.42 | CCN(CC)C(=O)CN1CCC2(CC1)CCN(c1ccc(C3CC3)cc1)C2=O [Example 10, 2-[2-(4-Cyclopropyl-phenyl)-1-oxo-2,8-diaza-spiro[4.5]dec-8-yl]-N,N-diethyl-acetamide]
7.74 | O=C1N(c2ccc(CC(F)(F)F)cc2)CCC12CCN(CC(O)c1c(F)cccc1Cl)CC2 (centres unmarked) [Example 50, 8-[2-(2-Chloro-6-fluoro-phenyl)-2-hydroxy-ethyl]-2-[4-(2,2,2-trifluoro-ethyl)-phenyl]-2,8-diaza-spiro[4.5]decan-1-one]
7.38 | C[C@@H](Oc1ccc(N2CCC3(CCN(CC(O)c4c(F)cccc4Cl)CC3)C2=O)cn1)C(F)(F)F (stereo partly drawn) [Example 49, 8-[2-(2-Chloro-6-fluoro-phenyl)-2-hydroxy-ethyl]-2-[6-((R)-2,2,2-trifluoro-1-methyl-ethoxy)-pyridin-3-yl]-2,8-diaza-spiro[4.5]decan-1-one]
7.70 | CCCCNC(=O)C(CCCC)N1CCC2(CCN(c3ccc(C4CC4)cc3)C2=O)CC1 (centres unmarked) [Example 30, 2-[2-(4-Cyclopropyl-phenyl)-1-oxo-2,8-diaza-spiro[4.5]dec-8-yl]-hexanoic acid butylamide]
6.44 | O=C1N(c2ccc(C3CC3)cc2)CCC12CCN(Cc1ccc(C(F)(F)F)cc1)CC2 [Example 3, 2-(4-Cyclopropyl-phenyl)-8-(4-trifluoromethyl-benzyl)-2,8-diaza-spiro[4.5]decan-1-one]
